In patent publication US20250000847A1, “TREATMENT OF NEURODEGENERATIVE DISEASES WITH HDAC INHIBITORS” (CASE WESTERN RESERVE UNIVERSITY, priority 2021, published 2025):
Read-outs that look alike come from different tables or passages of the source.

What was measured:
HDAC = conditions: cell-free assay where stated; read-out: IC50 (pan-HDAC); cited from earlier work
HDACs 2, 3, 6, and 10 = conditions: cited from earlier work
HDAC6 = HDAC6 (Homo sapiens, UniProt Q9UBN7); conditions: cell-free assays; cited from earlier work
HDAC2 = HDAC2 (Homo sapiens, UniProt Q92769); conditions: cell-free assays where stated; cited from earlier work
HDAC1 = HDAC1 (Homo sapiens, UniProt Q13547); conditions: cell-free assays where stated; cited from earlier work
HDAC3 = HDAC3 (Homo sapiens, UniProt O15379); conditions: cell-free where stated; cited from earlier work
maize HD1B = conditions: cell-free assays; cited from earlier work
maize HD2 = conditions: cell-free assays; cited from earlier work
maize HD1A = conditions: cell-free assays; cited from earlier work
[1] = biological target: class III isoenzyme SIRT I (Homo sapiens, UniProt Q96EB6); conditions: cited from earlier work
HDACs 2, 4, 10, and 11 = conditions: cited from earlier work
HDACs 6 and 7 = conditions: cited from earlier work
HDAC8 = HDAC8 (Homo sapiens, UniProt Q9BY41); conditions: cited from earlier work
[2] = system: HDAC4/5/7/9/11, Sirtuin1, and Sirtuin2; conditions: cited from earlier work
acetylated H4 and H3 = conditions: cited from earlier work
[3] = system: MHC Class I (H-2Kb) bound to OVA257-264 on reactive astrocytes; test: OVA257-264 peptide antigen cross presentation assay; format: cell-based, mouse; conditions: for treated cells H-2 kB-OVA positive DRAs: reactive astrocytes without inhibitor more than about 80%
Procedure: To test whether HDAC inhibitors block the ability of reactive astrocytes to cross present exogenous antigen, cells were plated down in 96-well plates at a density of about 500 cells/mm^2. Cells were then treated with HDAC inhibitors for 1 hr prior to the addition of reactive astrocyte driving factors as the concentrations stated above. Cells were incubated for 24 hrs, after which, media was washed out and replaced with media containing the peptide fragment ovalbumin 257-264 (OVA257-264). Cells were then incubated overnight, and then stained for 2 hrs at 37° C. with APC-conjugated antibody against MHC Class I (H-2Kb) bound to OVA257-264, then visualized. The percent of H-2Kb positive cells as a percent of total live cells was determined (FIG. 3).
After 24 hours of treatment, these cells were cultured in the presence of the OVA257264 Peptide (GenScript RP10611 or Sigma S7951). After 12 hours, the cells were live-stained for two hours using a conjugated antibody targeted against an OVA257-264 peptide antigen. The cells were then fixed and imaged using the PerkinElmer Operetta CLS High-Content Analysis System.

RelA/P65 = test: Nuclear RelA/P65 in reactive astrocytes; format: cell-based, mouse
Procedure: For immunocytochemistry, cells were fixed with ice-cold 4% PFA for 15 minutes at room temperature, washed three times with PBS, blocked and permeabilized with 10% donkey serum and 0.1% Triton X-100 in PBS for 1 hr, and then stained with primary overnight followed by three washes with PBS, and then 1 hr incubation with Alexaflour secondary antibodies and DAPI. Stained cells were imaged using the PerkinElmer Operetta CLS High-Content Analysis System and analyzed using automated scripts in PerkinElmer Columbus Image Analysis software. Primary antibodies used were GBP2 (ProteinTech, 11854-1-AP), vimentin (BioLegend, 919101), RelA/P65 (Cell Signaling Tech, 6956), MBP (Abeam, AB7349).

CCL5 = CCL5 secretion by reactive astrocytes (ELISA); format: cell-based, mouse; conditions: FIG. 4
Procedure: Astrocytes were plated and treated exactly as described for the antigen cross presentation assay. However, after 24 hrs of incubation with either reactive astrocyte driving factors alone or with HDAC inhibitor treatment, conditioned media from the cells was collected and assayed for CCL5 using a commercially available colorimetric ELISA kit (RnD Cat #: DY478-05). Data was then fit to a standard four parameter logistic (4PL) curve and presented as pg/mL/cell, normalized to reactive astrocytes plus DMSO vehicle (FIG. 4).
Media was collected from mouse P2 primary astrocytes that had been cultured for 24 hrs in the presence of cytokines with and without HDAC3 inhibitors and compared to media from astrocytes not treated with cytokines. The concentration of CCL5, a cytokine secreted by reactive astrocytes, was measured in each of the respective media conditions based on the direct adsorption of CCL5 to a pre-coated capture antibody on the ELISA assay plate. The ELISA sandwich assay was performed according to the manufacturer's instructions (DY478-05, R&D Systems). Relative CCL5 concentration were measured based on absorbance measured by a plate reader.

HDAC3, sequence (O15379 whole entry, species assumed): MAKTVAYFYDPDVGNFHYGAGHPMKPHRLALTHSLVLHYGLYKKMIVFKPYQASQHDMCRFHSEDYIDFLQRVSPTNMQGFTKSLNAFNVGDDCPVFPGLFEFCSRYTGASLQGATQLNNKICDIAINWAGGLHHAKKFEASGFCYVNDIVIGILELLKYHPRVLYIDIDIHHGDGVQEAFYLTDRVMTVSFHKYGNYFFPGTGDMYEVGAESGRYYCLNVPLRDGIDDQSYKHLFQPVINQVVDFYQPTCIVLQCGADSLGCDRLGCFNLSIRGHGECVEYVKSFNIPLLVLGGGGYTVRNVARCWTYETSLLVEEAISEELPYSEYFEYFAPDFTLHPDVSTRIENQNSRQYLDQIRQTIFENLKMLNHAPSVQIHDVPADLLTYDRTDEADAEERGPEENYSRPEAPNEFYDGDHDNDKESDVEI
HDAC3, sequence (Q9Y618 395-489 partner limits assumed, species assumed): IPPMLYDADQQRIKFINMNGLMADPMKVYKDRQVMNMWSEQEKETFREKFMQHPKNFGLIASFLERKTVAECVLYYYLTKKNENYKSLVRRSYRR
HDAC6, sequence (Q9UBN7 whole entry, species assumed): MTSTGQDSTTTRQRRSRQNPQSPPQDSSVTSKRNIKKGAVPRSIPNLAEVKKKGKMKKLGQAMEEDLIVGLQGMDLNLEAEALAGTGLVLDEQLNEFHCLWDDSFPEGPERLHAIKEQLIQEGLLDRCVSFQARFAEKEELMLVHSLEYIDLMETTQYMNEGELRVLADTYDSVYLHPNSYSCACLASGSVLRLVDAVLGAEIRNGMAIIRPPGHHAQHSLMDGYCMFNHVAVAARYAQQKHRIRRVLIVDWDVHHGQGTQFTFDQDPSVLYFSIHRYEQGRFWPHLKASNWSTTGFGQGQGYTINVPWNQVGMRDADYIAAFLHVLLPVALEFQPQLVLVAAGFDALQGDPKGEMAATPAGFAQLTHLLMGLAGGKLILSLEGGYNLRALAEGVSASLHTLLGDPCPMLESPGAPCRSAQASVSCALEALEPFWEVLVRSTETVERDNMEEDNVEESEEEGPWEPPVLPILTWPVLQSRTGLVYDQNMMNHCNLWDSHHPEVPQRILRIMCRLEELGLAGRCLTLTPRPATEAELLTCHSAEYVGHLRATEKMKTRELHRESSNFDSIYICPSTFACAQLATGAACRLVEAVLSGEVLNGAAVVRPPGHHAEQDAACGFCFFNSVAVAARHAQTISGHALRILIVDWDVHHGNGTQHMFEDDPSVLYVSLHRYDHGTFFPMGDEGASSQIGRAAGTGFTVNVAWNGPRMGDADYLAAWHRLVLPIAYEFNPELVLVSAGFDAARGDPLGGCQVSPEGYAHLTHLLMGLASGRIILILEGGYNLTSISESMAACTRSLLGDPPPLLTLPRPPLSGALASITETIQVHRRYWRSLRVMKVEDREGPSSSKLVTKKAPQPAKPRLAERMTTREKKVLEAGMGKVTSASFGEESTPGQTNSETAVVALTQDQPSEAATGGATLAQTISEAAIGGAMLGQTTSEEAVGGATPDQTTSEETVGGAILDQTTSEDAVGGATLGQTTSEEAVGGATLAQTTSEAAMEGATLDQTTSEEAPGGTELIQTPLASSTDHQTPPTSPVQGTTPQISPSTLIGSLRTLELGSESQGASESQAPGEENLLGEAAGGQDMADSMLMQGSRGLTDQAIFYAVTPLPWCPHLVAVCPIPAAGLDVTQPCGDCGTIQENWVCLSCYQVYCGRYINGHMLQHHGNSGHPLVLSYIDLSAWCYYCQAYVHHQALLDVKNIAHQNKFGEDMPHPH
class III isoenzyme SIRT I, sequence (Q96EB6 whole entry): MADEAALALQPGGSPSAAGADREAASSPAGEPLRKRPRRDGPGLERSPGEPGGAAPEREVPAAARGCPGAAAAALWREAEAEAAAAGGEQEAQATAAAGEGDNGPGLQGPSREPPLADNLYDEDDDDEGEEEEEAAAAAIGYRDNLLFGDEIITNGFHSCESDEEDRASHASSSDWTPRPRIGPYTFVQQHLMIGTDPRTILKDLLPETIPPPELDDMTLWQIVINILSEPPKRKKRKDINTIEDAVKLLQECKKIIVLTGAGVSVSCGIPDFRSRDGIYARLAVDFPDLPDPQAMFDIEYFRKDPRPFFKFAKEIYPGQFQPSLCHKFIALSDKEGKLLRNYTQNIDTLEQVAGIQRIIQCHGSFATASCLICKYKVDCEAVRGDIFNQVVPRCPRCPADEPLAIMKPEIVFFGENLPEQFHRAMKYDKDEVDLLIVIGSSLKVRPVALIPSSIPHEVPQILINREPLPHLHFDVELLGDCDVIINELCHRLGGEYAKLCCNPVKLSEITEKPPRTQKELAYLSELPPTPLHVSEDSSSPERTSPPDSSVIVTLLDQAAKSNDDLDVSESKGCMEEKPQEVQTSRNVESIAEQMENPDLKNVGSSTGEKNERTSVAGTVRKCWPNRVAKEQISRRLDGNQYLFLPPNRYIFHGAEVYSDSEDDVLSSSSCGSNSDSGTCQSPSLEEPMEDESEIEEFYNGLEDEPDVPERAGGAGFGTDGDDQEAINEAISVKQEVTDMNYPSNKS
HDAC1, sequence (Q13547 whole entry, species assumed): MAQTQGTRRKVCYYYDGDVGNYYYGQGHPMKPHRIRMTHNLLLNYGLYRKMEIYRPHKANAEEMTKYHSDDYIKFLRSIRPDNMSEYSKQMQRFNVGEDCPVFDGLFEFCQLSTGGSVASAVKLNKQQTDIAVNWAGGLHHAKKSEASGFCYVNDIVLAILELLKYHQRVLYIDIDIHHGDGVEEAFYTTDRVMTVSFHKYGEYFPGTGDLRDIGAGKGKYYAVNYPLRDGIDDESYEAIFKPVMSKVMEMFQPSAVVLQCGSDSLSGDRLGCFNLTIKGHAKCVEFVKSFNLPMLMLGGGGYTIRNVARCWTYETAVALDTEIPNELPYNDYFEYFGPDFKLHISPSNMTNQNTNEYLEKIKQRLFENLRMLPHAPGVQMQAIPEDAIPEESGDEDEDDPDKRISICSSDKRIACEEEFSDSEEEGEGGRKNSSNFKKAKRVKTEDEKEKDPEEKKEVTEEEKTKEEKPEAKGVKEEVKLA
HDAC8, sequence (Q9BY41 whole entry, species assumed): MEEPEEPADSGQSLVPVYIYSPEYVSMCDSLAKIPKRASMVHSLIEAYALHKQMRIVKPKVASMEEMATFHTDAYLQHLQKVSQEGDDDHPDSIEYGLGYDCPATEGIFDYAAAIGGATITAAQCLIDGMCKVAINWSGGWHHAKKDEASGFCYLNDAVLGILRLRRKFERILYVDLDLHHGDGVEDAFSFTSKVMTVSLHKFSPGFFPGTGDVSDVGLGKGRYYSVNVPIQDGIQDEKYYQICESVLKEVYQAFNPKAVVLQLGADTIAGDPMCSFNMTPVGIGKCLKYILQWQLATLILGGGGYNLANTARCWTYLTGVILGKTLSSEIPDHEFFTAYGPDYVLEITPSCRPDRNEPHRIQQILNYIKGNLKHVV
HDAC2, sequence (Q92769 whole entry, species assumed): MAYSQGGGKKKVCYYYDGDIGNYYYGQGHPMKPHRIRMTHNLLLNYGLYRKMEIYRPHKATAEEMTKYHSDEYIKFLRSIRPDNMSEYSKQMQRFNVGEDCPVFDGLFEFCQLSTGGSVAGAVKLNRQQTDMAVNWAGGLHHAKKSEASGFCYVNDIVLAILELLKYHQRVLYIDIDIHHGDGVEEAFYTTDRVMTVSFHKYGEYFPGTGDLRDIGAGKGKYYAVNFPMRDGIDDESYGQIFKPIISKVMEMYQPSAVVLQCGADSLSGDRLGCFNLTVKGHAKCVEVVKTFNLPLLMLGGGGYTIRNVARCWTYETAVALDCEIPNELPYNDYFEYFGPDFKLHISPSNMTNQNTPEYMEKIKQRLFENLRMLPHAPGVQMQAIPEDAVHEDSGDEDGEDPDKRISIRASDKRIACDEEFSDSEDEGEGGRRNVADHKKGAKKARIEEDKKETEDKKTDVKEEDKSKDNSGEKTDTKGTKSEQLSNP

CC(C)[C@H](C(=O)Nc1ccc(C(=O)NO)cc1)c1ccccc1 [AR-42]
IC50 (HDAC): 0.03 µM

CN(C)Cc1c(C(=O)NCCOc2ccc(C(=O)NO)cc2)oc2ccccc12 [Abexinostat]
potency to HDACs 2, 3, 6, and 10 (HDACs 2, 3, 6, and 10): modest potent to HDACs 2, 3, 6, and 10 and greater

Nc1ccccc1NC(=O)c1cnccn1 [BG45]
IC50 (HDAC6): > 20 µM | IC50 (HDAC2): 2.2 µM | IC50 (HDAC1): 2 µM | IC50 (HDAC3): 0.289 µM

O=C(/C=C/c1ccc(CN(CCO)CCc2c[nH]c3ccccc23)cc1)NO [Dacinostat]
IC50 (HDAC): 0.032 µM

CCN(CC)Cc1ccc2cc(COC(=O)Nc3ccc(C(=O)NO)cc3)ccc2c1 [Givinostat]
IC50 (maize HD1B): 0.0075 µM | IC50 (maize HD2): 0.01 µM | IC50 (maize HD1A): 0.016 µM

CN(C)c1ccc(C(=O)NCCCCCCC(=O)NO)cc1 [M344]
IC50 (HDAC): 0.1 µM

CCCCc1nc2cc(/C=C/C(=O)NO)ccc2n1CCN(CC)CC [Pracinostat]
activity against the class III isoenzyme SIRT I [1]: no | IC50 (HDAC): 0.04 to 0.14 µM

Cn1cc(CNCC2CCN(c3ncc(C(=O)NO)cn3)CC2)c2ccccc21 [Quisinostat]
potency to HDACs 2, 4, 10, and 11 (HDACs 2, 4, 10, and 11): modest potent | potency to HDACs 6 and 7 (HDACs 6 and 7): selectivity against HDACs 3, 5, 8, and 9 and lowest

O=C(CCCCCCNC(=O)c1cnc(N(c2ccccc2)c2ccccc2)nc1)NO [Rocilinostat]
activity against HDAC8 (HDAC8): slight activity | activity against HDAC4/5/7/9/11, Sirtuin1, and Sirtuin2 [2]: minimal

O=C(CCCCCN1C(=O)c2cccc3cccc(c23)C1=O)NO [Scriptaid]
effect on acetylated H4 versus H3 (acetylated H4 and H3): greater effect on acetylated H4 than H3.

Nc1ccccc1NC(=O)c1ccc(-c2cn(CCc3ccsc3)nn2)cc1 [T247]
ability of reactive astrocytes to cross present antigen on MHC Class I ([3]; FIG. 3): decrease | treated cells H-2 kB-OVA positive DRAs ([3]; about 2.5 μM): about 8% | treated cells H-2 kB-OVA positive DRAs ([3]; about 5.0 μM): about 20% | nuclear RelA/P65 (RelA/P65): decreases | nuclear RelA/P65 (RelA/P65; listed as T24710): decreased | secretion of CCL5 by reactive astrocytes (CCL5): significantly decrease | IC50 (HDAC3): 0.055 µM

Trichostatin A
IC50 (HDAC): ~0.0018 µM
